The text below walks through data of patent publication US9771369B2, “Compounds and methods for kinase modulation, and indications therefor” (Plexxikon Inc., priority 2014, dated 2017).

For this assay, the target named is c-kit mutant D816V (Homo sapiens (Human), UniProt P10721, D816V/DEL694-753). Briefly: c-Kit mutant D816V biochemical assay (AlphaScreen kinase activity). The procedure:
The c-kit mutant D816V (or kinase domain thereof) is an active kinase in AlphaScreen. IC50 values are determined with respect to inhibition of c-Kit mutant D816V kinase activity, where inhibition of phosphorylation of a peptide substrate is measured as a function of compound concentration. Compounds to be tested were dissolved in DMSO to a concentration of 30 mM. These were diluted […] of DMSO (4 mM) and 1 μl was added to an assay plate. These were then serially diluted 1:3 (50 μl to […] DMSO) for a total of 8 points. Plates were prepared such that each kinase reaction is […] in 1× kinase buffer (25 mM HEPES, pH 7.2, 8 mM MgCl2, 2 mM MnCl2, 50 mM NaCl, 0.01% Brij, 1 mM DTT, 0.01% BSA), 5% DMSO and 10 μM ATP. Substrate was 30 nM biotin-(E4Y)10 (EMD Millipore, Cat#12-440). C-kit mutant D816V kinase was at 0.75 ng per sample. After incubation of the kinase reaction for 30 minutes at room temperature, 5 μl of donor beads (Streptavidin coated beads (Perkin Elmer Life Science) final concentration 7.5 μg/ml) in stop buffer (25 mM Hepes pH 7.5, 100 mM EDTA, 0.01% BSA) was added, the sample was mixed and incubated for 30 minutes at room temperature before adding […] of acceptor beads (PY30 coated beads (Perkin Elmer Life Science) final concentration 7.5 μg/ml) in stop buffer. The samples were incubated for 60 minutes at room temperature and the signal per well was read on EnVision reader. Phosphorylated substrate results in binding of the PY30 antibody and association of the donor and acceptor beads such that signal correlates with kinase activity. The signal vs. compound concentration was used to determine the IC50.
Recombinant c-kit mutant D816V (residues 551-934, kinase insertion domain residues 694-753 deleted) with a 6×-histidine N-terminal tag (SEQ ID NO: 3) was expressed in E. coli Arctic Express (DE3) RIL (Stratagene). Cells were grown in Terrific Broth (TB) media to an OD600 of 0.6 at 37° C. at which temperature was reduced to 10° C., protein was induced with 1.0 mM IPTG for 18 hours and harvested by centrifugation at 8000×g for 30 minutes. Cells were re-suspended in 0.1M KPO4 pH 8.0, 250 mM NaCl, 10% Glycerol, 0.75% NP-40, 25 mM Imidazole, 5 mM BME with 0.2 mg/ml Lysosyme, 2.0 mM PMSF, 25 μg/ml DNAse I, incubated in ice for 30 minutes and lyzed with a cell disruptor (MicroFluidics). The lysate was clarified by centrifugation at 30,000×g for 2 hours. The protein was captured with Talon resin (Clontech). Contaminating proteins were washed off with 25 mM Tris-HCl pH 8.3, 250 mM NaCl, 15% Glycerol, 1% Triton X-100, and protein eluted using 100 mM EDTA. The protein was further purified using Gel Filtration column 26/600 Superdex 300 (GE) in 50 mM Tris-HCl , pH 8.0, 250 mM NaCl, 15% Glycerol, 5 mM BME. The protein was aliquoted and flash-frozen in liquid Nitrogen.
For orientation: In Alpha technology, singlet oxygen from a donor bead excites a nearby acceptor bead.

Molecules are shown by their SMILES.

c-kit mutant D816V, sequence (P10721 other isoform, or with tags, fused parts or gaps D816V/del 694-753): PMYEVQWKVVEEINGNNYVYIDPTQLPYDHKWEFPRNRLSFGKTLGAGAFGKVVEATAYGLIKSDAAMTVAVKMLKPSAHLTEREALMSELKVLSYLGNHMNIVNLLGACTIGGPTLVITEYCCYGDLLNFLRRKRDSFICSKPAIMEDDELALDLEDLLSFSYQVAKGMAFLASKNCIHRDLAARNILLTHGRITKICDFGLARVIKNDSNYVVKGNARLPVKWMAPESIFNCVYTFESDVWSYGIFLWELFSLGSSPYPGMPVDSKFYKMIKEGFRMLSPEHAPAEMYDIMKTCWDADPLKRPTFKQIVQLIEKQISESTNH

For `Cc1nc(C2CCN(c3ncnc4[nH]c(-c5cnn(C(F)F)c5)cc34)CC2)[nH]c1-c1ccc(OC(F)F)cc1` [P-3115, 4-[4-[5-[4-(difluoromethoxy)phenyl]-4-methyl-1H-imidazol-2-yl]-1-piperidyl]-6-[1-(difluoromethyl)pyrazol-4-yl]-7H-pyrrolo[2,3-d]pyrimidine], the IC50 (commonly the concentration at which inhibition is half-maximal) fell in the range of 0.0001 to 1 µM.

On to `Cc1nc(C2CCN(c3ncnc4[nH]c(-c5cnn(C(F)F)c5)cc34)CC2)[nH]c1-c1ccc(OC(F)(F)F)cc1` [P-3116, 6-[1-(difluoromethyl)pyrazol-4-yl]-4-[4-[4-methyl-5-[4-(trifluoromethoxy)phenyl]-1H-imidazol-2-yl]-1-piperidyl]-7H-pyrrolo[2,3-d]pyrimidine], for which the 50% inhibitory concentration (IC50) was in the range of 0.0001 to 1 µM.

The compound `COc1cc(-c2cc3c(N4CCC(c5nc(C)c(-c6ccc(C)s6)[nH]5)CC4)ncnc3[nH]2)ccn1` [P-3117, 6-(2-methoxy-4-pyridyl)-4-[4-[4-methyl-5-(5-methyl-2-thienyl)-1H-imidazol-2-yl]-1-piperidyl]-7H-pyrrolo[2,3-d]pyrimidine] showed a concentration for half-maximal inhibition (IC50) of 0.0001 to 1 µM.

The compound `Cc1ccc(-c2[nH]c(C3CCN(c4ncnc5[nH]c(-c6ccc(F)cc6)cc45)CC3)nc2C)s1` [P-3118, 6-(4-fluorophenyl)-4-[4-[4-methyl-5-(5-methyl-2-thienyl)-1H-imidazol-2-yl]-1-piperidyl]-7H-pyrrolo[2,3-d]pyrimidine] had an IC50 of 0.0001 to 1 µM.

For `Cc1nc(C2CCN(c3ncnc4[nH]c(-c5ccc(F)cc5)cc34)CC2)[nH]c1-c1ccc(Cl)s1` [P-3119, 4-[4-[5-(5-chloro-2-thienyl)-4-methyl-1H-imidazol-2-yl]-1-piperidyl]-6-(4-fluorophenyl)-7H-pyrrolo[2,3-d]pyrimidine], the IC50 was in the range of 0.0001 to 1 µM.

In the case of `Cc1cc2c(N3CCC(c4nc(C)c(-c5ccc6c(c5)OCO6)[nH]4)CC3)ncnc2[nH]1` [P-3120, 4-[4-[5-(1,3-benzodioxol-5-yl)-4-methyl-1H-imidazol-2-yl]-1-piperidyl]-6-methyl-7H-pyrrolo[2,3-d]pyrimidine], the IC50 is 1 to 10 µM.

In turn, `Cc1cc2c(N3CCC(c4nc(C)c(-c5ccc6c(c5)OCCO6)[nH]4)CC3)ncnc2[nH]1` [P-3121, 4-[4-[5-(2,3-dihydro-1,4-benzodioxin-6-yl)-4-methyl-1H-imidazol-2-yl]-1-piperidyl]-6-methyl-7H-pyrrolo[2,3-d]pyrimidine] showed an IC50 of 0.0001 to 1 µM.

`Cc1nn(C)cc1-c1cc2c(N3CCC(c4nc(C)c(-c5ccc(OC(F)(F)F)cc5)[nH]4)CC3)ncnc2[nH]1` [P-3122, 6-(1,3-dimethylpyrazol-4-yl)-4-[4-[4-methyl-5-[4-(trifluoromethoxy)phenyl]-1H-imidazol-2-yl]-1-piperidyl]-7H-pyrrolo[2,3-d]pyrimidine] displayed an IC50 of 0.0001 to 1 µM.

Take `COc1cccc(-c2[nH]c(C3CCN(c4ncnc5[nH]c(-c6ccnc(OC)c6)cc45)CC3)nc2C(F)(F)F)c1` [P-3123, 4-[4-[5-(3-methoxyphenyl)-4-(trifluoromethyl)-1H-imidazol-2-yl]-1-piperidyl]-6-(2-methoxy-4-pyridyl)-7H-pyrrolo[2,3-d]pyrimidine]: the IC50 lay within 0.0001 to 1 µM.

The compound `COc1cccc(-c2[nH]c(C3CCN(c4ncnc5[nH]c(-c6ccc(C#N)cc6)cc45)CC3)nc2C(F)(F)F)c1` [P-3124, 4-[4-[4-[5-(3-methoxyphenyl)-4-(trifluoromethyl)-1H-imidazol-2-yl]-1-piperidyl]-7H-pyrrolo[2,3-d]pyrimidin-6-yl]benzonitrile] displayed an IC50 of 0.0001 to 1 µM.

With `CCOc1ccc(-c2[nH]c(C3CCN(c4ncnc5[nH]c(C)cc45)CC3)nc2C)cc1C` [P-3125, 4-[4-[5-(4-ethoxy-3-methyl-phenyl)-4-methyl-1H-imidazol-2-yl]-1-piperidyl]-6-methyl-7H-pyrrolo[2,3-d]pyrimidine], the IC50 fell in the range of 1 to 10 µM.

In the case of `CCOc1cc(-c2[nH]c(C3CCN(c4ncnc5[nH]c(C)cc45)CC3)nc2C)ccc1C` [P-3126, 4-[4-[5-(3-ethoxy-4-methyl-phenyl)-4-methyl-1H-imidazol-2-yl]-1-piperidyl]-6-methyl-7H-pyrrolo[2,3-d]pyrimidine], the IC50 was 0.0001 to 1 µM.

Turning to `Cc1cc2c(N3CCC(c4nc(C)c(-c5ccc6c(c5)OC(F)(F)O6)[nH]4)CC3)ncnc2[nH]1` [P-3127, 4-[4-[5-(2,2-difluoro-1,3-benzodioxol-5-yl)-4-methyl-1H-imidazol-2-yl]-1-piperidyl]-6-methyl-7H-pyrrolo[2,3-d]pyrimidine], the IC50 is 1 to 10 µM.

`COc1ccc(-c2[nH]c(C3CCN(c4ncnc5[nH]c(C)cc45)CC3)nc2C)cc1C` [P-3128, 4-[4-[5-(4-methoxy-3-methyl-phenyl)-4-methyl-1H-imidazol-2-yl]-1-piperidyl]-6-methyl-7H-pyrrolo[2,3-d]pyrimidine] registered an IC50 of 0.0001 to 1 µM.

The compound `COc1cc(-c2[nH]c(C3CCN(c4ncnc5[nH]c(C)cc45)CC3)nc2C)ccc1C` [P-3129, 4-[4-[5-(3-methoxy-4-methyl-phenyl)-4-methyl-1H-imidazol-2-yl]-1-piperidyl]-6-methyl-7H-pyrrolo[2,3-d]pyrimidine] registered an IC50 of 1 to 10 µM.

Compound `COc1ccc(-c2[nH]c(C3CCN(c4ncnc5[nH]c(C)cc45)CC3)nc2C)cc1` [P-3130, 4-[4-[5-(4-methoxyphenyl)-4-methyl-1H-imidazol-2-yl]-1-piperidyl]-6-methyl-7H-pyrrolo[2,3-d]pyrimidine] yielded an IC50 of 1 to 10 µM.

Consider `COc1cccc(-c2[nH]c(C3CCN(c4ncnc5[nH]c(C)cc45)CC3)nc2C)c1` [P-3131, 4-[4-[5-(3-methoxyphenyl)-4-methyl-1H-imidazol-2-yl]-1-piperidyl]-6-methyl-7H-pyrrolo[2,3-d]pyrimidine], for which the IC50 was in the range of 0.0001 to 1 µM.

Turning to `Cc1nc(C2CCN(c3ncnc4[nH]c(-c5ccc(C#N)cc5)cc34)CC2)[nH]c1-c1ccc2c(c1)OCCO2` [P-3132, 4-[4-[4-[5-(2,3-dihydro-1,4-benzodioxin-6-yl)-4-methyl-1H-imidazol-2-yl]-1-piperidyl]-7H-pyrrolo[2,3-d]pyrimidin-6-yl]benzonitrile], the IC50 was in the range of 0.0001 to 1 µM.

With `Cc1nc(C2CCN(c3ncnc4[nH]c(-c5cnn(C(F)F)c5)cc34)CC2)[nH]c1-c1ccc2c(c1)OCCO2` [P-3133, 6-[1-(difluoromethyl)pyrazol-4-yl]-4-[4-[5-(2,3-dihydro-1,4-benzodioxin-6-yl)-4-methyl-1H-imidazol-2-yl]-1-piperidyl]-7H-pyrrolo[2,3-d]pyrimidine], the IC50 is 0.0001 to 1 µM.

Compound `COc1cc(-c2cc3c(N4CCC(c5nc(C(F)(F)F)c(-c6ccc(C)cc6)[nH]5)CC4)ncnc3[nH]2)ccn1` [P-3134, 6-(2-methoxy-4-pyridyl)-4-[4-[5-(p-tolyl)-4-(trifluoromethyl)-1H-imidazol-2-yl]-1-piperidyl]-7H-pyrrolo[2,3-d]pyrimidine] showed an IC50 of 0.0001 to 1 µM.

Compound `Cc1ccc(-c2[nH]c(C3CCN(c4ncnc5[nH]c(-c6ccc(F)cc6)cc45)CC3)nc2C(F)(F)F)cc1` [P-3135, 6-(4-fluorophenyl)-4-[4-[5-(p-tolyl)-4-(trifluoromethyl)-1H-imidazol-2-yl]-1-piperidyl]-7H-pyrrolo[2,3-d]pyrimidine] gave a 50% inhibitory concentration (IC50) of 0.0001 to 1 µM.

Compound `Cc1nc(C2CCN(c3ncnc4[nH]c(-c5ccc(F)cc5)cc34)CC2)[nH]c1-c1ccc(C(F)(F)F)cc1` [P-3136, 6-(4-fluorophenyl)-4-[4-[4-methyl-5-[4-(trifluoromethyl)phenyl]-1H-imidazol-2-yl]-1-piperidyl]-7H-pyrrolo[2,3-d]pyrimidine] had an IC50 of 0.0001 to 1 µM.
